Drawing on PubChem BioAssay (NCI), this text covers TGI and GI50 for ten compounds.

Some test systems named below: HCT-116 colon; HT29 colon; OVCAR-8 ovarian; UO-31 renal; MDA-MB-435; SR leukemia; RXF 393 renal; CAKI-1 renal; NCI-H226 lung; HOP-92 NSCLC.
Common to all, as to experiment: DTP human tumour cell line panel, 48 h

Each structure is given as a SMILES string.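 1) Cells in 96-well plates. 2) Compound, 48 h, 5 concentrations. 3) Linear interpolation between surrounding doses. 4) Unreached endpoint = highest concentration. GI50 is the concentration that inhibits growth by half. TGI is the concentration that stops growth completely.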

For `CN(CCO)CCC1COc2ccccc2O1` (configuration not stated), the TGI in the assay with HCT-116 colon, in the assay with HT29 colon, in the assay on OVCAR-8 ovarian, in the assay with UO-31 renal, with MDA-MB-435 and in the assay with SR leukemia was more than 10 µM in each case. Further, the TGI in the assay with RXF 393 renal, in the assay with CAKI-1 renal and in the assay on NCI-H226 lung was more than 10 µM throughout.

As to `N#C[S-].[Ce+3].c1ccc(-c2ccccn2)nc1.c1ccc(-c2ccccn2)nc1.c1ccc(-c2ccccn2)nc1`, the GI50 in the assay on HCT-116 colon was 30.5 µM; with HT29 colon, 10.6 µM; with OVCAR-8 ovarian it was 13.5 µM; in the assay on UO-31 renal, 4.46 µM; with SR leukemia, 25.7 µM; in the assay on RXF 393 renal, 22.7 µM. Besides, the values for the GI50 in the assay with CAKI-1 renal and in the assay with NCI-H226 lung were 10.8 µM and 18 µM, respectively. For the same compound, the TGI in the assay on HCT-116 colon was more than 100 µM; with HT29 colon it was more than 100 µM; in the assay with OVCAR-8 ovarian, more than 100 µM; in the assay with UO-31 renal, 28.7 µM; in the assay with SR leukemia it was more than 100 µM; with RXF 393 renal, 98.4 µM. In addition, the total growth inhibition concentration (TGI) in the assay with CAKI-1 renal came to 91.3 µM; in the assay with NCI-H226 lung, 63.1 µM.

`COC1=CC(c2ccc[nH]2)=N/C1=C\c1[nH]c(C)c(CC(=O)NCc2ccccc2)c1C`: the GI50 was 1.64 µM with UO-31 renal; 1.68 µM in the assay with MDA-MB-435; 1.4 µM in the assay on HOP-92 NSCLC; 1.55 µM in the assay on RXF 393 renal; 1.48 µM in the assay with CAKI-1 renal. In addition, the TGI worked out at 3.16 µM in the assay on UO-31 renal; 3.23 µM in the assay with MDA-MB-435; 2.94 µM with HOP-92 NSCLC; 2.95 µM in the assay on RXF 393 renal; 2.85 µM in the assay with CAKI-1 renal.

With `COc1nc2ccc(Cl)c(C(O)c3ccccc3)c2nc1OC` (configuration not stated), the TGI was 32.7 µM with HCT-116 colon; more than 100 µM with HT29 colon; more than 100 µM in the assay with OVCAR-8 ovarian; more than 100 µM with UO-31 renal; 42.8 µM in the assay on MDA-MB-435; 60.6 µM in the assay on HOP-92 NSCLC. For the same compound, the TGI with SR leukemia is 27.3 µM; in the assay on RXF 393 renal, 41.3 µM; in the assay on CAKI-1 renal it was 45.3 µM; with NCI-H226 lung, 54.7 µM.

On to `N/C(=C\c1ccc(/C=C(\NC(=O)c2ccccc2)c2nc3c([nH]2)C(=O)c2ccccc2C3=O)cc1)c1nc2c([nH]1)C(=O)c1ccccc1C2=O`, for which the total growth inhibition concentration (TGI) is 29.5 µM with HCT-116 colon; 32.4 µM with HT29 colon; 61.8 µM with OVCAR-8 ovarian; 17.7 µM in the assay with UO-31 renal; 22.2 µM in the assay with HOP-92 NSCLC; 26.2 µM in the assay on RXF 393 renal. The figures for the concentration for total growth inhibition (TGI) in the assay with CAKI-1 renal and in the assay on NCI-H226 lung were 60.7 µM and 27 µM, respectively.

As to `COC(Cc1cc(C(O)(c2ccc(C(C)(C)C)cc2)c2cc(CC(OC)(c3cc(C(OC)(c4ccc(C(C)(C)C)cc4)c4ccc(C(C)(C)C)cc4)c(C)cc3C)c3cc(C(OC)(c4ccc(C(C)(C)C)cc4)c4ccc(C(C)(C)C)cc4)c(C)cc3C)c(C)cc2C)c(C)cc1C)(c1cc(C(OC)(c2ccc(C(C)(C)C)cc2)c2ccc(C(C)(C)C)cc2)c(C)cc1C)c1cc(C(OC)(c2ccc(C(C)(C)C)cc2)c2ccc(C(C)(C)C)cc2)c(C)cc1C`, the total growth inhibition concentration (TGI) in the assay on HCT-116 colon, in the assay with HT29 colon, in the assay with OVCAR-8 ovarian, in the assay with UO-31 renal, in the assay on MDA-MB-435 and in the assay on HOP-92 NSCLC was more than 75 µM in each case. Besides, the TGI with SR leukemia, with RXF 393 renal, in the assay with CAKI-1 renal and with NCI-H226 lung was more than 75 µM in each case.

As for `N#CC1(C#N)C(=O)c2ccncc2C1=O`, the concentration for total growth inhibition (TGI) in the assay on HCT-116 colon, in the assay on HT29 colon, in the assay with OVCAR-8 ovarian, with UO-31 renal, in the assay on MDA-MB-435 and in the assay with HOP-92 NSCLC was more than 100 µM in each case. Moreover, the TGI in the assay with SR leukemia, with RXF 393 renal, in the assay with CAKI-1 renal and in the assay with NCI-H226 lung was more than 100 µM each time.

As to `COc1cc(/C=C2\C(=O)Nc3ccc(Cl)cc32)cc(OC)c1OC`, the GI50 is 6.71 µM in the assay with HT29 colon; 22.9 µM with OVCAR-8 ovarian; 16 µM in the assay with UO-31 renal; 3.26 µM in the assay on MDA-MB-435; 3.39 µM in the assay with HOP-92 NSCLC; 3.29 µM in the assay with SR leukemia. Besides, the values for the GI50 with RXF 393 renal, in the assay on CAKI-1 renal and in the assay with NCI-H226 lung were 1.82 µM, 23.6 µM and 51.3 µM, respectively. Further, the TGI in the assay on HT29 colon was more than 100 µM; in the assay on OVCAR-8 ovarian, more than 100 µM; with UO-31 renal, more than 100 µM; in the assay on MDA-MB-435, 9.37 µM; in the assay on HOP-92 NSCLC it was 22.9 µM; with SR leukemia it was more than 100 µM. The concentration for total growth inhibition (TGI) is 8.22 µM in the assay with RXF 393 renal, more than 100 µM in the assay with CAKI-1 renal and more than 100 µM in the assay with NCI-H226 lung.

On to `CCCC[n+]1ccn(-c2nc3ccccc3n2C)c1`, for which the TGI in the assay on HCT-116 colon, in the assay with HT29 colon, with OVCAR-8 ovarian, in the assay on UO-31 renal, in the assay with SR leukemia and in the assay with RXF 393 renal was more than 100 µM in each case. The TGI with CAKI-1 renal and with NCI-H226 lung was more than 100 µM each time.

Regarding `C/C=C(\C)C(=O)OC1C2C(C)=CC(=O)C(O)C2(C)C2C3(O)OCC24C1OC(=O)C(OC(C)=O)C4C(C)C3O` (configuration not stated), the TGI with HCT-116 colon amounted to 0.875 µM; with HT29 colon, 0.382 µM; in the assay with OVCAR-8 ovarian it was 0.105 µM; in the assay with UO-31 renal, 0.887 µM; in the assay with HOP-92 NSCLC, 0.0508 µM; in the assay on RXF 393 renal it was 0.063 µM. In addition, the results for the TGI in the assay with CAKI-1 renal and in the assay on NCI-H226 lung were 0.674 µM and 0.0427 µM, respectively.

As a reminder, the TGI is the concentration giving total growth inhibition. The term GI50 denotes the concentration that inhibits growth by half.
